Experimental data as given in patent US20260027258A1, “Antimicrobial Compositions” (Matoke Holdings Limited, priority 2022, published 2026).
In brackets after ≈: the same amount, converted by molar mass. One block for each compound: values may come before it.

Experiments:
[1] = test system: strains of Candida causing VVC; test: Yeast susceptibility testing, all Candida species tested (overall comparisons); assay type: cell-based; conditions: versus all of the gel concentrations
Protocol: (§1) AST was used to determine a Minimum Inhibitory Concentration (MIC) value for each antifungal agent on each strain of Candida. Three comparator drugs were also tested. This allowed the effectiveness of RO-101 gel to be compared to common antifungal drugs often used to treat VVC. Antifungal agents and their concentrations were as follows: RO-101 gel (1×, 2×, 10×, 20×: 1×=0.005%, 2×=0.01%, 10×=0.05% and 20×=0.1% Gox) (1 to 500 mg/L), SurgihoneyRO (1 to 500 mg/L), RO-101 gel 0% negative control (0% Gox) (1 to 500 mg/L), Fluconazole (0.125 to 64 mg/L), Itraconazole (0.015 to 8 mg/L) and Amphotericin (0.015 to 8 mg/L). The EUCAST E.DEF 7.3.2 (EUCAST, 2022a) method for yeast susceptibility testing was followed where possible.
(§2) Stock solutions of drugs were prepared with RPMI 1640 medium with 2% glucose. This was prepared by dissolving 20.8 g of RPMI 1640 powder (Sigma, Cat. No. R-6504), 69.1 g of morpholinopropanesulfonic acid (MOPS) (Melford, Cat. No. B2003) and 36 g of glucose (Sigma, Cat. No. G7528) in 800 ml of pharmacy water (Appleton Woods). 10M sodium hydroxide (Sigma, S8045) was added to adjust the pH to 7, and then the RPMI was filter sterilised. De Man, Rogosa & Sharpe (MRS) broth was used to grow the Lactobacillus isolates. MRS broth was prepared by dissolving 51 g of MRS powder (Sigma, 69966) in 1 litre of pharmacy water. 1 ml of Tween 80 (Sigma, P8074) was then added. […]

[2] = test system: C. albicans; test: Yeast susceptibility testing (EUCAST E.DEF 7.3.2 broth microdilution), C. albicans; assay type: cell-based; conditions: Candida albicans; C. albicans isolates (n=5); 24 hours read; MIC = growth inhibited by ≥50% (Amphotericin ≥90%)
Protocol: as §1, §2

[3] = test system: C. glabrata; test: Yeast susceptibility testing (EUCAST E.DEF 7.3.2 broth microdilution), C. glabrata; assay type: cell-based; conditions: Nakaseomyces glabratus, C. glabrata isolates (n=8), 24 hours read, MIC = growth inhibited by ≥50% (Amphotericin ≥90%)
Protocol: as §1
(§3) Stock solutions of drugs were prepared with RPMI 1640 medium with 2% glucose. This was prepared by dissolving 20.8 g of RPMI 1640 powder (Sigma, Cat. No. R-6504), 69.1 g of morpholinopropanesulfonic acid (MOPS) (Melford, Cat. No. B2003) and 36 g of glucose (Sigma, Cat. No. G7528) in 800 ml of pharmacy water (Appleton Woods). 10M sodium hydroxide (Sigma, S8045) was added to adjust the pH to 7, and then the RPMI was filter sterilised. De Man, Rogosa & Sharpe (MRS) broth was used to grow the Lactobacillus isolates. MRS broth was prepared by dissolving 51 g of MRS powder (Sigma, 69966) in 1 litre of pharmacy water. 1 ml of Tween 80 (Sigma, P8074) was then added. The mixture was then sterilized by autoclaving at 121° C. for 15 minutes.
(§4) All yeast isolates selected were grown from high vaginal swab samples and were of the Candida genus. Species chosen included C. albicans (n=5), C. glabrata (n=8), C. krusei (n=4), C. tropicalis (n=3) and C. parapsilosis (n=4). These isolates were identified to a species level by testing for the presence of a germ tube, biochemical testing, what temperature the isolate grew in, the colour when streaked on chrome agar, and in some cases the isolates DNA was sequenced.
(§5) The isolates were streaked for single colonies on a SAB plate, using a sterile metal loop. They were then incubated at 35° C. for 48 hours prior to susceptibility testing. […]

[4] = at 20° C. and 1 atm; cited from earlier work
[5] = test system: C. parapsilosis; test: Yeast susceptibility testing (EUCAST E.DEF 7.3.2 broth microdilution), C. parapsilosis; assay type: cell-based; conditions: Lodderomyces parapsilosis, C. parapsilosis isolates (n=4), 24 hours read, MIC = growth inhibited by ≥50%
Protocol: as §1, §3, §4, §5

[6] = test system: C. tropicalis; test: Yeast susceptibility testing (EUCAST E.DEF 7.3.2 broth microdilution), C. tropicalis; assay type: cell-based; conditions: Candida tropicalis, C. tropicalis isolates (n=3), 24 hours read, MIC = growth inhibited by ≥50%
Protocol: as §1, §2

[7] = test system: C. krusei; test: Yeast susceptibility testing (EUCAST E.DEF 7.3.2 broth microdilution), C. krusei; assay type: cell-based; conditions: Pichia kudriavzevii, C. krusei isolates (n=4), 24 hours read, MIC = growth inhibited by ≥50%
Protocol: as §1, §3, §4, §5

- MIC50 [2]: 0.0625 µg/mL (≈ 0.0676 µM)
- MIC90 [2]: 0.0625 µg/mL (≈ 0.0676 µM)
- MIC50 [3]: 0.0625 µg/mL (≈ 0.0676 µM)
- MIC90 [3]: 0.125 µg/mL (≈ 0.135 µM)
- MIC ([3]; read-out: MIC geometric mean): 0.081 µg/mL (≈ 0.0877 µM)
SMILES: C[C@@H]1[C@H](O)[C@@H](C)/C=C/C=C/C=C/C=C/C=C/C=C/C=C/[C@H](O[C@@H]2O[C@H](C)[C@@H](O)[C@H](N)[C@@H]2O)C[C@@H]2O[C@](O)(C[C@@H](O)C[C@@H](O)[C@H](O)CC[C@@H](O)C[C@@H](O)CC(=O)O[C@H]1C)C[C@H](O)[C@H]2C(=O)O [Amphotericin]
- MIC50, MIC90 and geometric means in comparison with RO-101 Gel [1]: lower MIC50, MIC90 and geometric means than all of the gel concentrations

SMILES: O=C(CO)[C@@H](O)[C@H](O)[C@H](O)CO [Fructose]
- solubility [4]: about 375 g/100 g water

- MIC50 [5]: 0.015 µg/mL (≈ 0.0213 µM)
- MIC90 [5]: 0.125 µg/mL (≈ 0.177 µM)
- MIC ([5]; read-out: MIC geometric mean): 0.025 µg/mL (≈ 0.0354 µM)
- MIC90 [6]: 0.0625 µg/mL (≈ 0.0886 µM)
- MIC ([6]; read-out: MIC geometric mean): 0.031 µg/mL (≈ 0.0439 µM)
- MIC50 [7]: 0.125 µg/mL (≈ 0.177 µM)
- MIC90 [7]: 0.25 µg/mL (≈ 0.354 µM)
- MIC ([7]; read-out: MIC geometric mean): 0.177 µg/mL (≈ 0.251 µM)
SMILES: CCC(C)n1ncn(-c2ccc(N3CCN(c4ccc(OCC5COC(Cn6cncn6)(c6ccc(Cl)cc6Cl)O5)cc4)CC3)cc2)c1=O (stereo not drawn) [Itraconazole]
